The text below walks through data of PMC2678945 (The Journal of neuroscience : the official journal of the …, 2008).

Read-outs that look alike come from different tables or passages of the source.

Assay [1] addresses T1, mTRPA1 (Mus musculus, UniProt Q8BLA8). The note with it: read-out: IC50, inhibition of MO-induced mTRPA1 activity.
The next assay deals with mTRPA1-S876V/T877L (Mus musculus, UniProt Q8BLA8, S876V/T877L). It is filed as cell-based.
Assay [2] deals with T2, hTRPA1-dTM5 (Homo sapiens / Drosophila melanogaster, UniProt O75762+Q7Z020). It is filed as cell-based.
Assay [3] addresses T3, hTRPA1 (Homo sapiens, UniProt O75762). In words: FLIPR calcium assay, wild type hTRPA1. Format: cell-based.
Another assay deals with T4, dTRPA1 (Drosophila melanogaster, UniProt Q7Z020).
T4 sequence (Q7Z020 1-1197): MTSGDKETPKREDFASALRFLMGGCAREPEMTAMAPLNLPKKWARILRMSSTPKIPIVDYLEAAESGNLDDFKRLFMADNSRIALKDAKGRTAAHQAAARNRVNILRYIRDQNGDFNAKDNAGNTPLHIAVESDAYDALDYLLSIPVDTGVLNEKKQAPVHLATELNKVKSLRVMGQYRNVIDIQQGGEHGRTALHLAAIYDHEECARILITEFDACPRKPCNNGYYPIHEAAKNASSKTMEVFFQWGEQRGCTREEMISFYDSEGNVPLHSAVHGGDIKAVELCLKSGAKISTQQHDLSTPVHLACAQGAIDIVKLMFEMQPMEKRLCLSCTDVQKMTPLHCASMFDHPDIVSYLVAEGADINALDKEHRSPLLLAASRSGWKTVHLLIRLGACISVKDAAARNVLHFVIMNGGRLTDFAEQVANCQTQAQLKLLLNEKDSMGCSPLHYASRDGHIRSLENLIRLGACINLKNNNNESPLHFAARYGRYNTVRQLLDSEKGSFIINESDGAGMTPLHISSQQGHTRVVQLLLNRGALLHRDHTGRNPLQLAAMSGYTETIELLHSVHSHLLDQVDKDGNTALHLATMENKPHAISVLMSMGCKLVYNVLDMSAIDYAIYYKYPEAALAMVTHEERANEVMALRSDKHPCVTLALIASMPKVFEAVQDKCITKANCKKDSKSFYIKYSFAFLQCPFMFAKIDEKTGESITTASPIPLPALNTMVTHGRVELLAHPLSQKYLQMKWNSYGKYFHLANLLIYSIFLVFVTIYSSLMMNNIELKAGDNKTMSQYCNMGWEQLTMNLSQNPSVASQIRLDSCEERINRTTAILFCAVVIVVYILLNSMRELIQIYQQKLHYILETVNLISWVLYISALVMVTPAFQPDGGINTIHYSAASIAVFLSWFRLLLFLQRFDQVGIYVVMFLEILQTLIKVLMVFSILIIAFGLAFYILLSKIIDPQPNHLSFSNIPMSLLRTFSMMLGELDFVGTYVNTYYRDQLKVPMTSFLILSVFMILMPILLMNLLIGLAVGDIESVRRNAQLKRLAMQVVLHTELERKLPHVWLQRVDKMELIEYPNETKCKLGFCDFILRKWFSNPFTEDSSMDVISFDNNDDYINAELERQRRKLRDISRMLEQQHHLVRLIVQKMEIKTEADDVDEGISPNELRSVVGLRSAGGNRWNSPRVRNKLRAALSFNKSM
In words: Whole-cell patch-clamp, HEK293T cells expressing dTRPA1. It is filed as cell-based. The note with it: at +120 mV. Background: In patch-clamp work, channel activity is measured electrically.

The target of assay [4] is T3, hTRPA1. The assay can be described thus: Whole-cell patch-clamp, HEK293T cells expressing hTRPA1. It is filed as cell-based. The note with it: 250 μM menthol; at +120 mV; n = 11.
The next assay addresses hTRPA1-FGFATLIAM (Homo sapiens, UniProt O75762, I905L/I946M/L867F/L894F/P897A/S900T/S943A/V875G/V942I). The assay can be described thus: FLIPR calcium assay, mutant hTRPA1-[…]. Format: cell-based.
The target of assay [5] is T1, mTRPA1. In words: cell-based.
The next assay has as its target hTRPA1-V875G (Homo sapiens, UniProt O75762, V875G). The assay can be described thus: FLIPR calcium assay, mutant hTRPA1-V875G. It is filed as cell-based.
The target in the next assay is hTRPA1-mTM5-6 (Homo sapiens, UniProt O75762, A939G/E920D/H933Y/I890V/I905L/I946M/L867F/L894F/L927F/P897A/S900T/S921A/S937T/S943A/V875G/V942I/Y926L). The assay can be described thus: FLIPR calcium assay, chimera hTRPA1-mTM5-6. It is filed as cell-based, human / mouse.
In a further assay the test system is mTRPA1-dTM5. In words: Whole-cell patch-clamp, HEK293T cells expressing mTRPA1-dTM5. It is filed as cell-based, mouse / Drosophila melanogaster. The note with it: 50 μM menthol.
The subject of the next assay is fugu-TRPA1. In words: FLIPR calcium assay, fugu-TRPA1. Format: cell-based, Takifugu.
Assay [6] deals with T2, hTRPA1-dTM5. The assay can be described thus: Whole-cell patch-clamp, HEK293T cells expressing hTRPA1-dTM5. Format: cell-based. The note with it: 250 μM menthol.
Another assay concerns mosquito-TRPA1. In words: FLIPR calcium assay, mosquito-TRPA1. It is filed as cell-based, Anopheles gambiae.
For assay [7], the target named is T1, mTRPA1. In words: Whole-cell patch-clamp, HEK293T cells expressing mTRPA1. It is filed as cell-based. The note with it: 100 μM MO in the presence of 500 μM menthol; n = 7.
In another assay the target is mTRPA1-hTM5-6 (Mus musculus, UniProt Q8BLA8, A900P/A924S/A946S/D923E/F870L/F897L/F930L/G878V/G942A/I945V/L908I/L929Y/M949I/T903S/T940S/V893I/Y936H). The assay can be described thus: FLIPR calcium assay, chimera mTRPA1-hTM5-6. Format: cell-based, mouse / human.
The target of another assay is dTRPA1-mN (Mus musculus / Drosophila melanogaster, UniProt Q7Z020+Q8BLA8). It is filed as cell-based.

T1 sequence (Q8BLA8 whole entry): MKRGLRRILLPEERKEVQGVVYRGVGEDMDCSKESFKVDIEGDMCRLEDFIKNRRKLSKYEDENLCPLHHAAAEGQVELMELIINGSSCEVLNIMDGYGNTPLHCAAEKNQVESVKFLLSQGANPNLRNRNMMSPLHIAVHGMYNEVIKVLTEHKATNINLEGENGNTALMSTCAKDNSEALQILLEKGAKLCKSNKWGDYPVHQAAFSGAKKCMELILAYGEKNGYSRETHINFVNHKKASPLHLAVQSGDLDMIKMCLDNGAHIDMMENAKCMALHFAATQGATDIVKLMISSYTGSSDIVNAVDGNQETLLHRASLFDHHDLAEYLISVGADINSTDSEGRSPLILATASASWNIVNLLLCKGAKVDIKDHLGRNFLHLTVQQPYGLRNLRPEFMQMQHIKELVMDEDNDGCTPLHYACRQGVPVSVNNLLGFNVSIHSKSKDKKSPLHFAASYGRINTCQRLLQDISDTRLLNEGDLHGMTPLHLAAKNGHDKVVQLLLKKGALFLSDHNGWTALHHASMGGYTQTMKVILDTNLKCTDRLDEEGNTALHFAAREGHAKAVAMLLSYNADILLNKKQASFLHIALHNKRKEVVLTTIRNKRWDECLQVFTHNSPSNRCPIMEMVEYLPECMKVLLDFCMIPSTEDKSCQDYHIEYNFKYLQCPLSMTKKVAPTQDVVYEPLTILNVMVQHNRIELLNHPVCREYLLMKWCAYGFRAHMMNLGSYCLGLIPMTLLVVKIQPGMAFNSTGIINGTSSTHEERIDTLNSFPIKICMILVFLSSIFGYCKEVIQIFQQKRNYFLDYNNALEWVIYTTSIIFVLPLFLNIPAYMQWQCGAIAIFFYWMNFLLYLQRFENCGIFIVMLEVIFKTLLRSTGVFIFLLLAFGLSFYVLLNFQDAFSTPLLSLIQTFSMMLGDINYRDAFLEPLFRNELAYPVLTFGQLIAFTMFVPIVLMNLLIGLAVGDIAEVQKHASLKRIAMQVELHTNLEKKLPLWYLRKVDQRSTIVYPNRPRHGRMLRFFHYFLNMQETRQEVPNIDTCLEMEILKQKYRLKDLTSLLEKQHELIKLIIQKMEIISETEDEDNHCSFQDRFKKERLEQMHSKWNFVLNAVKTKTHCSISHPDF
T3 sequence (O75762 whole entry): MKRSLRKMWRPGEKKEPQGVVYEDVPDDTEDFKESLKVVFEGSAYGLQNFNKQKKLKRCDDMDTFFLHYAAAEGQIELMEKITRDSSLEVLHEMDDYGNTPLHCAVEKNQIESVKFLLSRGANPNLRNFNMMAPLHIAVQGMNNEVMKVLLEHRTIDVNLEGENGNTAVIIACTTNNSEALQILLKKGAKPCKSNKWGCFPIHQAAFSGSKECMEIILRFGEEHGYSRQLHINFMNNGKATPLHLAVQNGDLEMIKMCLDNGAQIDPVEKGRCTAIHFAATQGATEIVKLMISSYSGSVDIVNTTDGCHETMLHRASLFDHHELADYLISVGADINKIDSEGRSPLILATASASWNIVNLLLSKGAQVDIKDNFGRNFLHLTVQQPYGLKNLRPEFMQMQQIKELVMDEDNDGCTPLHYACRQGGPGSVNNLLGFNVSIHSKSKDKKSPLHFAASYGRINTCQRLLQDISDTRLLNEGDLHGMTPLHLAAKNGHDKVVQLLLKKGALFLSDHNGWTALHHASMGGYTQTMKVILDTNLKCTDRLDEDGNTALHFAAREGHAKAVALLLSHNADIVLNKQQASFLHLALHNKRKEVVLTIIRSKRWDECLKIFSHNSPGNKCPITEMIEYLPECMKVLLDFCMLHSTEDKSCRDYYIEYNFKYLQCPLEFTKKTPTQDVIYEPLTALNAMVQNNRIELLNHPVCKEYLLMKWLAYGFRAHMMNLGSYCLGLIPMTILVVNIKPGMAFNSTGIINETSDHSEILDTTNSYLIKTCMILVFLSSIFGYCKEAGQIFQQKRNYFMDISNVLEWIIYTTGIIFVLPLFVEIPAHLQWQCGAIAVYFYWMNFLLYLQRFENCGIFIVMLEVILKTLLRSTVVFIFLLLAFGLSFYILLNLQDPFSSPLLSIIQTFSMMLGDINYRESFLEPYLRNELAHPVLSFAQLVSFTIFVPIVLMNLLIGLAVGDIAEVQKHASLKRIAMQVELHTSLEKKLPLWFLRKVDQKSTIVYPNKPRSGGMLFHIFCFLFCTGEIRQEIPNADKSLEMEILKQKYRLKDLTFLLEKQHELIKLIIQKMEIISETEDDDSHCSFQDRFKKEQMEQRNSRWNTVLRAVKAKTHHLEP
Sequence of mTRPA1-hTM5-6 (Q8BLA8 1-1125 with the stated changes): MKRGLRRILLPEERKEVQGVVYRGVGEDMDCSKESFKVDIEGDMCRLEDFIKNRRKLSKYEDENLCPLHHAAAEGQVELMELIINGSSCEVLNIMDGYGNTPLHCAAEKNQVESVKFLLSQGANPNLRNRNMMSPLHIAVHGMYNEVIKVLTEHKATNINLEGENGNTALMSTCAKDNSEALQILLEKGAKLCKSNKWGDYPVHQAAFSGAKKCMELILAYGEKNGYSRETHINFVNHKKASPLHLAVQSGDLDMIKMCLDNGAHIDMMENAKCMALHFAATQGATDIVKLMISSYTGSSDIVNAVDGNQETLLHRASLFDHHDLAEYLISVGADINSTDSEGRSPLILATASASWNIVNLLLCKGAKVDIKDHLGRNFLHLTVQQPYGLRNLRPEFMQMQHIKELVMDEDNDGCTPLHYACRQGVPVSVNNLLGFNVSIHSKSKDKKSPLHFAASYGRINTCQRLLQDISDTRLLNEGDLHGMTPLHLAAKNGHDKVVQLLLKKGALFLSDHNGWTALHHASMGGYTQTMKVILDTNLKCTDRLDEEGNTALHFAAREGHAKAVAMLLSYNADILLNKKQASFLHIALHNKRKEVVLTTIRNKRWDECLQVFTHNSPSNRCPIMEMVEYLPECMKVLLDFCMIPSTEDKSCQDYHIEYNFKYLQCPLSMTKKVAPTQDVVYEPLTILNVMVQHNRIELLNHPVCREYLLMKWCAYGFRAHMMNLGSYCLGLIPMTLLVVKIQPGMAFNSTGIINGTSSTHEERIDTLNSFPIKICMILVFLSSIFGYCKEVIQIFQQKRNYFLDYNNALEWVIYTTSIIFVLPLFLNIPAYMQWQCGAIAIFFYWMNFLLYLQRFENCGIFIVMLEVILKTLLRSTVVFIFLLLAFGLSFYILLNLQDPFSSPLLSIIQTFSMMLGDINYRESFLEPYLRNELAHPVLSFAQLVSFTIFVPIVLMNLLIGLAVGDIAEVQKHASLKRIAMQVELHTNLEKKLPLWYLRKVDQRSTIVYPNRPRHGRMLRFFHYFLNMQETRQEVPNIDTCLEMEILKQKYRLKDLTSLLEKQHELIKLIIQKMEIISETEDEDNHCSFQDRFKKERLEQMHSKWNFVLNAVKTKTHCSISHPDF
Sequence of hTRPA1-mTM5-6 (O75762 1-1119 with the stated changes): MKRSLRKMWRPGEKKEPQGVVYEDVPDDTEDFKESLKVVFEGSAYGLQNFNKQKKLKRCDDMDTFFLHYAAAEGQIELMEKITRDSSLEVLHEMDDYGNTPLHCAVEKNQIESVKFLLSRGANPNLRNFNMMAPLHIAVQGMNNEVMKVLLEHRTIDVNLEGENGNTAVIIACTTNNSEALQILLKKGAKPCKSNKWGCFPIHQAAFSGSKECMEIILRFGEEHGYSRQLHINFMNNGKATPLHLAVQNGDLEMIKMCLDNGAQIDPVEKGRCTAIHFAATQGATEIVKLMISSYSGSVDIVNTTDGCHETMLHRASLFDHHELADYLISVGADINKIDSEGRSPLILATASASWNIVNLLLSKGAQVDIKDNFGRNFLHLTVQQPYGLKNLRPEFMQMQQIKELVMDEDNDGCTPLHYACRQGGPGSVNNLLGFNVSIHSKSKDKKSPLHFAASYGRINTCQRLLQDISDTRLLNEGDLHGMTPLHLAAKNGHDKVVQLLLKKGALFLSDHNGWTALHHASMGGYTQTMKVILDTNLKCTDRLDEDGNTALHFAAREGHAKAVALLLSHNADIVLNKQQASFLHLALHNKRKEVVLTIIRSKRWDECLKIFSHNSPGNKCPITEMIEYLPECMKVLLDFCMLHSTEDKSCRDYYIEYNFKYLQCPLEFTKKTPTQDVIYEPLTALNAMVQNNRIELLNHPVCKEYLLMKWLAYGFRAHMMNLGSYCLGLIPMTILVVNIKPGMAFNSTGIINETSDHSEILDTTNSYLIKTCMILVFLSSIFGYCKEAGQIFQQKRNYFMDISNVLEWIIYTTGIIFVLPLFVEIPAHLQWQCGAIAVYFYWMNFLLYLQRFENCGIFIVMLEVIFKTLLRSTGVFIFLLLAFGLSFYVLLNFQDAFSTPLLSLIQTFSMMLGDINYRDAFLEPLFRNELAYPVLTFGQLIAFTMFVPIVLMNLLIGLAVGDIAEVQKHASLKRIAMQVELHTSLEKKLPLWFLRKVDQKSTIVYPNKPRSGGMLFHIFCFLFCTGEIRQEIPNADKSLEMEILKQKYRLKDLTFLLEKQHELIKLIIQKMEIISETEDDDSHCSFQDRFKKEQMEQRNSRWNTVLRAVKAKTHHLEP
Sequence of hTRPA1-V875G (O75762 whole entry V875G): as the sequence (O75762 whole entry) above, with V875G counted along it
Sequence of mTRPA1-S876V/T877L (Q8BLA8 whole entry S876V/T877L): as the sequence (Q8BLA8 whole entry) above, with S876V, T877L counted along it
Sequence of hTRPA1-FGFATLIAM (O75762 whole entry L867F/V875G/L894F/P897A/S900T/I905L/V942I/S943A/I946M): as the sequence (O75762 1-1119 with the stated changes) above, with V890I, D920E, A921S, L926Y, F927L, Y933H, T937S, G939A counted along it

Turning to `CC(=NO)/C(C)=C\c1ccc(Cl)cc1` [AP18, (Z)-4-(4-chlorophynyl)-3-methylbut-3-en-2-oxime], the values for the IC50 on mTRPA1 [1] and on hTRPA1 [3] (read-out: hTRPA1 IC50 (Inhibition)) were 0.69 ± 0.09 µM and 0.6 ± 0.17 µM, respectively. Besides, the “inhibitory effect on MO-induced mTRPA1-S876V/T877L activity” value at mTRPA1-S876V/T877L is “totally abolished”. Moreover, the “hTRPA1-dTM5 IC50 (Inhibition)” value on hTRPA1-dTM5 [2] is reported as “No inhibition”.

Regarding `CC(C)=CCC/C(C)=C/CC/C(C)=C/CSc1ccccc1C(=O)O` [FTS, Farnesyl thiosalicylic acid], the “hTRPA1-dTM5 EC50 (Activation)” value at hTRPA1-dTM5 [2] was “No activation”. Also, the EC50 (usually the concentration that produces a half-maximal response) on hTRPA1 [3] (read-out: hTRPA1 EC50 (Activation)) is 7.3 ± 1.1 µM.

For the compound `CC(C)c1ccc(NC(=O)Cn2cnc3c2c(=O)n(C)c(=O)n3C)cc1` [HC030031, 2-(1,3-dimethyl-2,6-dioxo-1,2,3,6-tetrahydro-7H-purin-7-yl)-N-(4-isopropylphenyl)acetamide], the IC50 (commonly the concentration at which inhibition is half-maximal) on hTRPA1 [3] was 12.9 ± 2.67 µM.

`CC(C)[C@@H]1CC[C@@H](C)C[C@H]1O` [Menthol, (-)-Menthol]: the “change in evoked current in dTRPA1 cells” value on dTRPA1 (25-100 μM menthol, n = 7) is recorded as -0.53 ± 0.3 pA/pF. In addition, the “activation of dTRPA1 current” value at dTRPA1 (250-500 μM menthol, 3 min of recording) is “ineffective”. Besides, the “whole cell current density evoked in hTRPA1 cells” value on hTRPA1 [4] is reported as 59.0 ± 10.2 pA/pF. Also, the IC50 was 36.6 ± 9 µM at hTRPA1-FGFATLIAM, 73.4 ± 11.5 µM at mTRPA1 [5], 119 ± 16.5 µM on hTRPA1-V875G and 71 ± 16.5 µM on hTRPA1-mTM5-6. Further, the “activation of mTRPA1-dTM5 current” value with mTRPA1-dTM5 is on record as “completely abolished”. In addition, the “menthol sensitivity of fugu-TRPA1” value in the assay with fugu-TRPA1 is given as “not sensitive”. On hTRPA1-dTM5 [6], the “activation of hTRPA1-dTM5 current” value was “completely abolished”. Also, the “hTRPA1-dTM5 EC50 (Activation)” value on hTRPA1-dTM5 [2] (FLIPR, responses normalized to 100 μM MO) is recorded as “No activation”. In addition, the “menthol sensitivity of mosquito-TRPA1” value with mosquito-TRPA1 is listed as “not sensitive”. The “block of the response of hTRPA1 to 100 μM MO” value at hTRPA1 [3] was “did not block”. Besides, on mTRPA1 [7], the “MO-induced mTRPA1 currents at +120 mV, normalized to currents elicited at +180 mV” value came out at 16 ± 7%. On mTRPA1-hTM5-6, the EC50 was determined as 43.9 ± 6.4 µM. Further, on mTRPA1-hTM5-6 (FLIPR, 100 μM MO), the “inhibition of MO-evoked mTRPA1-hTM5-6 activity” value is given as “not significantly inhibited”. The “menthol effect at dTRPA1-mN” value at dTRPA1-mN was “ineffective”.

Take `Cl.Cl.Cl.Cl.Cl.Cl.N.N.N.N.N.N.N.N.N.N.N.N.N.N.[O-2].[O-2].[Ru+3].[Ru+3].[Ru+4]` [Ruthenium Red, ruthenium red]: the IC50 at hTRPA1-dTM5 [2] (read-out: hTRPA1-dTM5 IC50 (Inhibition)) is 0.48 ± 0.03 µM.
